Data published in patent US4004976A, “Process for recovering the main sapogenins from the roots of rhizomes of helleborus” (Deutsche Gold- und Silber-Scheideanstalt vormals Roessler, priority 1974, dated 1977).

How the values were obtained:
[1] = system: indometacin ulcer of rats; test: Indometacin ulcer of rats (method of John and Adrian modified by Wilhelmi), ulcer protecting effect; type: in vivo, rat (albino rats of the strain SIV 50); details: for Ulcer Protecting Effect: oral, 1 h after indometacin 20 mg/kg, evaluated 24 h after indometacin
Experimental: These tests were carried out according to the method of John and Adrian modified by Wilhelmi on the indometacin ulcer of rats (see Arneimittelforschung Vol. 19 (1969) pages 45 et seq.)
The determination is carried out in the following manner.
Albino rats of the strain SIV 50 (S. Ivanovas, Kisslegg/Allgau) having an initial weight of 250 to 300 grams were held in controlled temperature rooms at 20° to 22° C. in wire cages (Ebeco, Type 3 double width) on a standard diet (Altromin). After 48-hour feeding intervals the animals received 20 mg/kg rat of indometacin in 1.5% tragacanth (1 ml tragacanth solution per 100 grams of rat) applied intragastrally.
One hour after giving the indometacin there was dispensed orally to the animals the test substance. The rats remain otherwise fasting (water ad libitum).
Twenty-four hours after giving the indometacin the animals were killed with CO2. The stomach was resected, opened along the great curvature and washed under flowing water.
The ulcerative changes appear as dark, point or stria shaped spots on the mucosa. The evaluation was done according to the method of Munchow, Arneimittelforschung Vol. 4 (1954) pages 341-344.

[2] = Acute toxicity, LD 50 (method of Miller and Tainter); details: in vivo; mouse, oral application
Experimental: The acute toxicity of the compound of the invention in the mouse (expressed by LD 50 mg/kg; method of Miller and Tainter; Proc. Soc. Exper. Biol. a. Med. Vol. 57 (1944) pages 261 et seq.) on oral application, for example, is above 6000 mg/kg.

[3] = system: central nervous system; test: Muscle relaxing and central nervous system influencing activity; details: in words, no test described

With `C=C1CC[C@@]2(OC1)O[C@H]1C[C@H]3[C@@H]4CC=C5C[C@@H](O)C[C@@H](O)[C@]5(C)[C@H]4[C@H](O)C[C@]3(C)[C@H]1[C@@H]2C` [compound of the invention, spiro-5,25(27)-diene-1β,3β,11α-triol] the “Ulcer Protecting Effect” value ([1]; Daily Dosage 50 mg/kg, rat) was 58%, the “Ulcer Protecting Effect” value ([1]; Daily Dosage 100 mg/kg, rat) was 78% and the “Ulcer Protecting Effect” value ([1]; Daily Dosage 200 mg/kg, rat) was 80%. For the same molecule, the ulcer healing activity ([1]; in words) was “has an ulcer healing activity”, the antiulcer activity ([1]; indometacin ulcers of rats, in words) was “good antiulcer activity” and the minimal effective dose ([1]; po, 24 h, orally, indometacin ulcer, rat, read-out: lowest effective dosage) was 50 mg/kg. For the same molecule, the “antiulcer activity compared with Biogastrone” value ([1]; versus known medicine Biogastrone, in words) was “comparable to the activity of the known medicine Biogastrone”, the LD50 [2] was > 6000 mg/kg and the “muscle relaxing and central nervous system influencing activity” value [3] was “muscle relaxing and central nervous system influencing activity has been established”.
